The source of these data is PubChem BioAssay AID1159565 (GlaxoSmithKline (GSK), 2015).

This assay relates to T. cruzi-infected H9C2 cardiomyocytes, high-content imaging. The experiment in a line: anti-T. cruzi activity in infected cardiomyocytes – imaging, H9C2 host cardiomyocytes, host toxicity (AID 1159565).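 Further: infected cells incubated 72 h after plating.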
Setting [1] is: measured here: H9C2 host cell toxicity.
Setting [2] is: measured here: amastigotes per cell.

Calls of active or inactive are those of the source. How the calls were made is not given here. A value given as a limit tells only on which side of the number the result lay.

For `Cc1nc2c(-c3ncn[nH]3)cc(NC(=O)Cc3ccccc3)cn2c1C`, the 50% inhibitory concentration (IC50) (usually the concentration at which inhibition is half-maximal) is 1 µM. For the same molecule, the IC50 under setting [1] worked out at 6.3 µM. Under setting [2], this molecule displayed an IC50 of 0.79 µM.
For `NC(=O)c1ncccc1Nc1nc(NC2CCC(O)CC2)ncc1Br` (stereo not given), in that order: 2 µM, 0.63 µM and 0.5 µM.
For `OC[C@@H](Nc1nccc(-c2c(-c3ccc(F)cc3)ncn2C2CCNCC2)n1)c1ccccc1`, the IC50 is 13 µM. Further, under setting [1], the half-inhibitory concentration (IC50) came out at 2 µM. The half-inhibitory concentration (IC50) under setting [2] came to 13 µM.
As for `O=C(N1CCc2ccccc2CC1)C1(C(=O)N2CCC(n3c(=O)[nH]c4ncccc43)CC2)CC1`, the IC50 was 0.79 µM. Moreover, the half-inhibitory concentration (IC50) under setting [1] was more than 50 µM. The same molecule returned an IC50 under setting [2] of 0.63 µM.
As for `Cc1occc1C(=O)Nc1ccccc1C(=O)Nc1nccs1`, the IC50 was > 50 µM (inactive). Also, the IC50 under setting [1] was more than 50 µM. This molecule registered an IC50 under setting [2] of 32 µM.
For the molecule `CCN(CC)S(=O)(=O)c1ccc(C(=O)Nc2cc(C)nn2-c2nc(C)c(C)c(=O)[nH]2)cc1`, the IC50 was 1.6 µM. The molecule also yielded a half-inhibitory concentration (IC50) under setting [1] of more than 50 µM. The same molecule showed an IC50 under setting [2] of 0.32 µM.
For `Cc1cccnc1CN1CCN(CCCOc2ccc(-c3ccc(C(N)=O)cc3)cc2)CC1`, in that order: 20 µM, more than 50 µM and 0.4 µM.
For `Cc1ccc(NC(=O)c2ccnc(N3CCCC3)c2)cc1-c1cc(C(N)=O)ccc1C`, in that order: 10 µM, more than 50 µM and 3.2 µM.
As to `COc1cc(F)c2ncc(F)c(CCN3CC[C@H](NCc4cc5c(cn4)OCS5)[C@@H](O)C3)c2c1`, the half-inhibitory concentration (IC50) is 0.25 µM. Under setting [1], this molecule yielded an IC50 of more than 50 µM. This molecule also registered an IC50 under setting [2] of 0.2 µM.
For `Cc1nc(-c2ccncc2)ncc1C(C)NC(=O)c1ccc(Cl)s1` (stereo not given), in that order: 32 µM, more than 50 µM and 20 µM.
On to `O=C(NCCc1ccccc1Cl)c1cccn1-c1cccnc1`, for which the IC50 is 0.5 µM. The IC50 under setting [1] is more than 50 µM. The half-inhibitory concentration (IC50) under setting [2] came out at 0.5 µM.
Regarding `CCc1ccc2nc(NC(=O)c3cc(N4CCOCC4)ccn3)sc2c1`, the half-inhibitory concentration (IC50) is 0.79 µM. Further, the IC50 under setting [1] amounted to 40 µM. For the same molecule, the half-maximal inhibitory concentration (IC50) under setting [2] is 0.5 µM.
For `COC(=O)c1ccc(-c2cnc3ccc(NCc4ccccn4)nn23)cc1`, in that order: 7.9 µM, more than 50 µM and 5 µM.
Regarding `CCCNC(=O)Nc1cccc(-c2nc3ncccc3o2)c1`, the IC50 was 4 µM. Under setting [1], this molecule gave a 50% inhibitory concentration (IC50) of 25 µM. The molecule also had an IC50 under setting [2] of 3.2 µM.
Take `O=c1cc(CSc2ccc(Cl)cc2)nc(-c2ccccn2)[nH]1`: the IC50 was 1.6 µM. The molecule also displayed a half-maximal inhibitory concentration (IC50) under setting [1] of 3.2 µM. For the same molecule, the concentration for half-maximal inhibition (IC50) under setting [2] came out at 0.79 µM.
For `CC1=NN(C(=O)CCn2cnc([N+](=O)[O-])n2)C(O)(C(F)(F)F)C1` (stereo not given), in that order: 6.3 µM, more than 50 µM and 1.3 µM.
For `COc1ccc(NS(=O)(=O)c2cc(-c3cc(C)[nH]n3)ccc2C)cc1OC`, in that order: 2 µM, more than 50 µM and 1.3 µM.
For `O=C(NCCc1ccn(-c2ccccc2)n1)C1CCCCC1`, in that order: 1 µM, more than 50 µM and 1 µM.
Turning to `Cc1nc(N2CCC(C(=O)N3CCC(O)(c4cccnc4)CC3)CC2)nc2ccc(C(C)C)cc12`, the 50% inhibitory concentration (IC50) is 0.32 µM. Under setting [1], the IC50 turned out to be 40 µM. This molecule displayed a concentration for half-maximal inhibition (IC50) under setting [2] of 0.4 µM.
For `COc1ccc2ncc(=O)n(CCN3CCC(NCc4ccc(-c5cccs5)cc4)CC3)c2n1`, in that order: 1.6 µM, 7.9 µM and 0.16 µM.
Turning to `CN(Cc1ccc(C(N)=O)cc1)C(c1ccc(F)cc1)c1cccnc1` (stereo not given), the IC50 is 0.25 µM. Further, under setting [1], the 50% inhibitory concentration (IC50) was more than 50 µM. Moreover, the IC50 under setting [2] came out at 0.2 µM.
As for `COc1ccc(NS(=O)(=O)c2cc(NC(=O)c3ccc([N+](=O)[O-])s3)ccc2OC)cc1`, the concentration for half-maximal inhibition (IC50) was 0.1 µM. Besides, the concentration for half-maximal inhibition (IC50) under setting [1] was more than 50 µM. In addition, the 50% inhibitory concentration (IC50) under setting [2] turned out to be 0.079 µM.
For `N#Cc1cccc(CNc2ccc(-c3cnn(CC4CC4)c(=O)c3C#N)cc2)c1`, in that order: 7.9 µM, more than 50 µM and 5 µM.
For `CCOc1ccc(CN(C)Cc2nc(N)nc(Nc3ccc(C)cc3)n2)cc1`, in that order: 5 µM, 3.2 µM and 5 µM.
In the case of `CN(C)c1ccc(N)cc1CN(CC1CCCO1)S(C)(=O)=O` (stereo not given), the IC50 was > 50 µM (inactive). The molecule also came in with an IC50 under setting [1] of more than 50 µM. Moreover, the 50% inhibitory concentration (IC50) under setting [2] was more than 50 µM.
Regarding `O=[N+]([O-])c1ccc(-c2nnn(-c3cccnc3)n2)o1`, the IC50 is > 50 µM (inactive). Under setting [1], the IC50 came out at 6.3 µM. Under setting [2], this molecule displayed an IC50 of 0.063 µM.
As for `Cc1[nH]nc(Nc2ccnc3[nH]ccc23)c1C`, the IC50 was > 50 µM (inactive). Also, the IC50 under setting [1] was more than 50 µM. The IC50 under setting [2] is more than 50 µM.
With `COCc1cc(Nc2ccc(Cl)cc2)nc(-c2ccccn2)n1`, the IC50 was 5 µM. Under setting [1], this molecule gave an IC50 of 1.3 µM. Under setting [2], this molecule registered an IC50 of 2.5 µM.
For `Cc1cc(C)nc(N2CCC(N(Cc3cccnc3)C(=O)c3cccc(C#N)c3)CC2)n1`, in that order: 0.32 µM, more than 50 µM and 0.4 µM.
For `C=CCN(Cc1cccs1)C(=O)CSc1nnc(-c2ccc3c(c2)OCO3)o1`, in that order: 0.63 µM, more than 50 µM and 0.5 µM.
For `O=S(=O)(NCC(c1cccnc1)N1CCN(c2ccccc2F)CC1)c1ccc(F)cc1` (stereo not given), in that order: 0.2 µM, more than 50 µM and 0.2 µM.
For the molecule `O=C(Nc1nccs1)c1ccccc1Cn1cc([N+](=O)[O-])cn1`, the IC50 is > 50 µM (inactive). This molecule gave a 50% inhibitory concentration (IC50) under setting [1] of more than 50 µM. This molecule came in with a half-inhibitory concentration (IC50) under setting [2] of more than 50 µM.
`Clc1ccc(C(CC2CCCCO2)Cn2cncn2)c(Cl)c1` (stereo not given): the half-inhibitory concentration (IC50) was 1.3 µM. Also, under setting [1], the concentration for half-maximal inhibition (IC50) is more than 50 µM. This molecule also showed an IC50 under setting [2] of 1 µM.
As to `CCCc1nc2nc(N)nc(N)c2cc1CC`, the IC50 is 0.32 µM. This molecule registered an IC50 under setting [1] of 13 µM. The molecule further had an IC50 under setting [2] of 0.079 µM.
In the case of `CN(Cc1nc2ccccc2s1)C(=O)C=Cc1cc2ccccc2o1`, the IC50 is 0.79 µM. Under setting [1], this molecule had a half-inhibitory concentration (IC50) of more than 50 µM. For the same molecule, the IC50 under setting [2] was 1 µM.
Take `O=C(Nc1ccc(C(F)(F)F)cc1)NC1(C(=O)NCc2ccco2)CCCCC1`: the IC50 is > 50 µM (inactive). For the same molecule, the IC50 under setting [1] is more than 50 µM. Under setting [2], this molecule returned a half-maximal inhibitory concentration (IC50) of more than 50 µM.
Regarding `CCOc1ccc(OCC(=O)N2c3ccccc3CC2C(=O)NC)cc1` (stereo not given), the IC50 was > 50 µM (inactive). This molecule gave an IC50 under setting [1] of more than 50 µM. Under setting [2], this molecule showed an IC50 of more than 50 µM.
As for `CCNc1cc(-c2ccccn2)nc(Nc2ccc(OC)cc2)n1`, the half-maximal inhibitory concentration (IC50) is 3.2 µM. The concentration for half-maximal inhibition (IC50) under setting [1] amounted to 0.32 µM. The IC50 under setting [2] came out at 2.5 µM.
Regarding `COc1ccc(NS(=O)(=O)c2cc(NC(=O)Cc3ccc(C)cc3)ccc2N2CCOCC2)cc1`, the concentration for half-maximal inhibition (IC50) is 5 µM. The same molecule showed an IC50 under setting [1] of more than 50 µM. The IC50 under setting [2] is 2.5 µM.
For `CNC(=O)C1Cc2ccccc2N1C(=O)Cc1ccc(OC)cc1` (stereo not given), in that order: > 50 µM (inactive), more than 50 µM and more than 50 µM.
Consider `O=C(Nc1nc(-c2ccccn2)cs1)c1ccc(S(=O)(=O)N2CCCCC2)cc1`, for which the IC50 is 0.63 µM. For the same molecule, the half-maximal inhibitory concentration (IC50) under setting [1] was found to be 2.5 µM. Also, the IC50 under setting [2] came to 0.4 µM.
In the case of `O=C(CN1CCN(c2ccccn2)CC1)Nc1cc(S(=O)(=O)N2CCCCCC2)ccc1Cl`, the concentration for half-maximal inhibition (IC50) is 7.9 µM. Moreover, the IC50 under setting [1] is more than 50 µM. Also, the half-maximal inhibitory concentration (IC50) under setting [2] turned out to be 6.3 µM.
On to `CC(C)(C)Nc1nc(-c2ccccn2)nc2ccccc12`, for which the half-inhibitory concentration (IC50) was 2 µM. In addition, the 50% inhibitory concentration (IC50) under setting [1] is 0.32 µM. The molecule further came in with a half-maximal inhibitory concentration (IC50) under setting [2] of 1.3 µM.
For `CCCCN(C(=O)c1ccc(NC(=O)C(C)C)cc1)c1ccccc1`, in that order: > 50 µM (inactive), more than 50 µM and 10 µM.
`CCc1ccccc1[C@@H](C)NC(=O)c1cnc2c(cnn2CC)c1NC1CCN(C(N)=O)CC1`: the IC50 was > 50 µM (inactive). Besides, the concentration for half-maximal inhibition (IC50) under setting [1] is more than 50 µM. Under setting [2], the half-maximal inhibitory concentration (IC50) is 40 µM.
With `NS(=O)(=O)c1ccc(Nc2ncc3cccc(OC4CCNCC4)c3n2)cc1`, the IC50 is 0.05 µM. This molecule also registered an IC50 under setting [1] of 0.63 µM. The IC50 under setting [2] is 0.02 µM.
For `CCOc1ccc(N(C)S(=O)(=O)c2ccc3[nH]cc(C(=O)NC4CCCC4)c(=O)c3c2)cc1`, in that order: > 50 µM (inactive), more than 50 µM and 6.3 µM.
On to `CC(C)Nc1nccc(-c2c(-c3ccc(F)cc3)ncn2C2CCOCC2)n1`, for which the IC50 is 0.32 µM. The half-inhibitory concentration (IC50) under setting [1] was more than 50 µM. Besides, the IC50 under setting [2] came out at 0.2 µM.
As for `CNc1c(C(N)=O)c(-c2ccc3scnc3c2)nn1CC(F)(F)F`, the half-inhibitory concentration (IC50) is 0.25 µM. Further, the half-inhibitory concentration (IC50) under setting [1] was more than 50 µM. Under setting [2], this molecule displayed an IC50 of 0.16 µM.
As for `CC(Cn1ccnc1)NC(=O)COc1ccc(Cl)c(Cl)c1` (stereo not given), the half-inhibitory concentration (IC50) was 0.5 µM. Under setting [1], this molecule returned a half-inhibitory concentration (IC50) of more than 50 µM. Besides, the IC50 under setting [2] was found to be 0.4 µM.
As to `Cc1cc(NC(=O)c2ccc([N+](=O)[O-])s2)ccc1Br`, the half-maximal inhibitory concentration (IC50) is 0.4 µM. This molecule also showed a concentration for half-maximal inhibition (IC50) under setting [1] of 2.5 µM. For the same molecule, the IC50 under setting [2] was 0.25 µM.
For `CC(=O)Nc1ccc(CN2CCC(N3CC(c4ccccc4)(c4ccccc4)OCC3=O)CC2)cc1`, in that order: 32 µM, more than 50 µM and 20 µM.
For `CC(C)(C)C(O)(CCc1ccc(Cl)cc1)Cn1cncn1` (stereo not given), in that order: 0.25 µM, more than 50 µM and 0.2 µM.
On to `COc1ccc(C(C)(C)C)cc1S(=O)(=O)n1ccnc1`, for which the IC50 was 0.2 µM. This molecule came in with a half-inhibitory concentration (IC50) under setting [1] of more than 50 µM. Further, the 50% inhibitory concentration (IC50) under setting [2] came to 0.2 µM.
For `O=C(Nc1nc(-c2ccccn2)cs1)N1C[C@H]2C[C@@]2(c2ccccc2)C1`, the half-inhibitory concentration (IC50) was 0.5 µM. The molecule further came in with an IC50 under setting [1] of 0.79 µM. For the same molecule, the concentration for half-maximal inhibition (IC50) under setting [2] is 0.25 µM.
